One assay has as its target Caspase-6 (Homo sapiens, UniProt P55212). Briefly: inhibition of CASP6 peptide cleavage – biochemical, VEID-R110 fluorescence, cherry-pick, dose response (AID 720632).
Assay [1] in a line: inhibition of ARNT PAS-B/TACC3 complex formation – biochemical, AlphaScreen, cherry-picked samples, confirmation (AID 651703).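 Also: His-tagged ARNT PAS-B domain paired with GST-TACC3 E629A dimer coactivator fragment; potency of inhibitors that break up the complex and lower AlphaScreen signal.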 The class given is functional, Homo sapiens.
The nature of assay [2]: OVCAR8 cell viability loss – plate reader, dry powder samples, PAX8 project, dose response (AID 743197). The class given is functional, cell-based. The note with it: OVCAR-8.
The nature of assay [3]: general cell-killing toxicity readout – plate reader, dry powder samples, cytotoxicity control for PAX8 inhibitor project, dose response (AID 743021). The format is functional, cell-based.
Another assay addresses Paired box protein Pax-8 (Homo sapiens, UniProt Q06710). Briefly: PAX8 transcriptional activity inhibition in RMG-I – RMG-I cells, luciferase, cherry-pick, dose response (AID 687027).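 Also: luciferase reporter driven by Pax8 target thyroperoxidase promoter measured by SteadyGlo luminescence.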 The format is functional, cell-based.
The nature of assay [4]: A2780 cell killing – plate reader, dry powder samples, cytotoxicity control, dose response (AID 743046). The class given is functional, cell-based.
A short description of assay [5]: OVCAR-3 cell viability loss – plate reader, dry powder samples, PAX8 inhibitor project, dose response (AID 743044). The format is functional, cell-based.
A short description of assay [6]: viability loss in HepG2 hepatoma cells – cell-based, ATP luminescence, cherry-pick, activator set 2, cytotoxicity control, dose response (AID 1053143). The class given is functional.
Assay [7] concerns the target T1, Oxysterols receptor LXR-beta (Homo sapiens, UniProt P55055).
T1 sequence (P55055 whole entry): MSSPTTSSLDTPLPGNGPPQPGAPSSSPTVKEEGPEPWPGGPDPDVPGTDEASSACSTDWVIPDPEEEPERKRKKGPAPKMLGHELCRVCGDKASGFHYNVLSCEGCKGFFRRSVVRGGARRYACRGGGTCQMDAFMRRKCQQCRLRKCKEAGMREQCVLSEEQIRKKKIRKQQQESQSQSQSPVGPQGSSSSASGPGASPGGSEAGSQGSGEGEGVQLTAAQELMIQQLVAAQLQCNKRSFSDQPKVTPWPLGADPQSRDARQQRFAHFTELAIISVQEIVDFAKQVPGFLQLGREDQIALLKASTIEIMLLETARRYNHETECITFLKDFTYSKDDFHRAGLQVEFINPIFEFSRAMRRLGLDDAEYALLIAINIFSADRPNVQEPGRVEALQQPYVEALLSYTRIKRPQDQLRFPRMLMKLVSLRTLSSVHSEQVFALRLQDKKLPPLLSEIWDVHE
The class given is functional, cell-based.

Assay [8] can be described thus: cells.
Assay [9] is described as follows: toxicity toward HepG2 liver cells – cell-based, plate reader, cherry-pick, antagonist series, cytotoxicity control, dose response (AID 743416). The class given is functional.
Assay [10] can be described thus: blockade of melanocortin 4 receptor signaling – cell-based, plate reader, cherry pick, counter-screen for LGR2 antagonist project, dose response (AID 743444).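 Also: transfected HEK 293 cells stimulated with alpha-MSH peptide; potency of inhibitors of the alpha-MSH evoked signal.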 The class given is functional.
Assay [11] in a line: A549 cell cytotoxicity, dose response, cytotoxicity control, plate reader, cherry-pick, antagonist series (AID 743412). The class given is functional, cell-based.
Assay [12] is described as follows: blockers of bursicon-stimulated LGR2 cAMP reporter – cell-based, HEK293, CRE-luciferase reporter, cherry pick, set 2, dose response (AID 743343).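 Also: transfected cells were stimulated with diluted bursicon conditioned medium after compound addition.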 The format is functional.
The nature of assay [13]: inhibition of ADAM10 peptide cleavage – biochemical, FRET peptide substrate, recombinant human ADAM10, selectivity assay for ADAM17 exosite inhibitor project, dose response (AID 743259).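 Also: ADAM10 enzyme cleaving a FRET peptide substrate.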
The test system of assay [14] is HEK293. Briefly: NOD2 signaling inhibitors in MDP-stimulated cells, cell-based, uHTS, luminescence (AID 2001). The conditions noted are these: Homo sapiens. The class given is functional.
Assay [15] concerns the target Photoreceptor-specific nuclear receptor (Homo sapiens, UniProt Q9Y5X4). The class given is functional, cell-based.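 Also: CHO-S cells with Gal4-NCOR and VP16-NR2E3 two-hybrid luciferase reporter.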
Another assay concerns INS1. Briefly: INS-1E survival protection against cytokine death – cell-based, luminescence, retest, dose response (AID 449756).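 Also: cell death triggered by IL-1 beta plus TNF-alpha plus IFN-gamma mixture; protective hits raise ATP signal compared with cytokine alone wells.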 The class given is functional. The note with it: Rattus norvegicus.
A short description of assay [16]: luciferase reporter signal suppression in cells – H4 neuroglioma cells, luminescence, dose response (AID 1990). The format is functional, cell-based.
The nature of assay [17]: viability of PTEN-deleted HCT116 cells – cell-based, HCT116 PTEN knockout, dose response (AID 1047).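 Also: HCT116 colon tumor cells with PTEN knocked out; cells exposed to compound for 60 hours before readout; potency for loss of cell viability measured by luminescence.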 The format is functional.
A short description of assay [18]: blockers of HIV-1 envelope-mediated cell-cell fusion – cherry-pick, dose response (AID 652057). The format is functional, cell-based.
Assay [19] relates to HEK293. The experiment in a line: cells. The format is functional, cell-based. The conditions noted are these: Homo sapiens.
Assay [20] in a line: Luminescence Cell-Based Dose Retest to Confirm Inhibitors of Cancer Stem Cells. [Related pubchem assays (depositor defined):AID2717, AID2721]. The conditions noted are these: Homo sapiens. The format is functional.
The nature of assay [21]: non-specific 3'UTR reporter inhibition in Clone20-Shn3RL – cell-based, Renilla luciferase, cherry-picked, counter-screen for Shn3 inhibitor project, dose response (AID 624133). The class given is functional.
Assay [22] is described as follows: loss of viability in HepG2 cells – cell-based, CellTiter-Glo, cherry-picked, cytotoxicity control for Shn3 inhibitor project, dose response (AID 624134). The class given is functional.
A short description of assay [23]: NIH3T3 cell viability loss – ATP luminescence, mouse fibroblasts, counter-screen, dose response (AID 2010).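 Also: cells exposed to compound for about 90 hours before reading.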 The class given is functional, cell-based.
Assay [24] can be described thus: viability loss in CEM21 cells – cell-based, CellTiter-Glo luminescence, cherry-picked, cytotoxicity control for viral fusion inhibitor project, dose response (AID 652042).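 Also: potency for signal decrease meaning cytotoxicity.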 The format is functional.
Assay [25] can be described thus: general mammalian cell viability loss – inhibitor set, cherry-pick, set 2, cytotoxicity control for miR-122 modulator project, dose response (AID 720697). The class given is functional, cell-based.
Assay [26] can be described thus: reduction of Shn3 3'UTR-driven luciferase in osteoblasts – cell-based, Clone20 osteoblasts, firefly luciferase, cherry-picked, dose response (AID 624132).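 Also: firefly luciferase luminescence from reporter carrying the Shn3 3'UTR in osteoblasts.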 The format is functional.
Assay [27] is described as follows: viability of HCT116 lacking mutant beta-catenin – cell-based, human colon tumor, dose response (AID 1045).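 Also: HCT116 colon tumor cells with beta catenin knocked out; cells exposed to compound for 60 hours.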 The class given is functional.
Assay [28] is described as follows: alpha-synuclein stem-loop luciferase translation blockers – H4 neuroglioma cells, luminescence, confirmation (AID 1988). The class given is functional, cell-based.
Assay [29] can be described thus: general mammalian cell viability loss – activator set, cherry-pick, cytotoxicity control for miR-122 modulator project, dose response (AID 720690).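 Also: HEK293T human cells scored for general mammalian cytotoxicity.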 The class given is functional, cell-based.
Assay [30] is described as follows: Trypanosoma cruzi growth suppression in host cells – NIH3T3 host cells, beta-gal luminescence, confirmation (AID 2044).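 Also: intracellular parasites grown in NIH/3T3 mouse fibroblasts as host cells; luminescent beta-galactosidase reporter signal from transgenic T. cruzi replicating inside host cells; inhibitors lower the luminescence signal.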 The format is functional, cell-based.
Assay [31] is described as follows: Luminescence Cell-Based Dose Response HTS to Identify Inhibitors of 5'UTR Stem-Loop Driven Prion Protein mRNA Translation in H4 Neuroglioblastoma Cells. [Related pubchem assays: 1827 (Project Summary), 1813 (Primary HTS)]. The class given is functional.
Assay [32] is described as follows: off-target signal loss in HeLa-CEM21 co-culture – HeLa F-luc CTL cells, cherry-picked, counter-screen for HIV-1 Env fusion inhibitor project, dose response (AID 652040).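 Also: potency for signal decrease marking cytotoxic or nonspecific inhibition.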 The class given is functional, cell-based.
Assay [33] concerns HEK293. The experiment in a line: inhibition of NOD1-driven NF-kB reporter – cell-based, luminescence, uHTS, primary screen (AID 1578). The conditions noted are these: Homo sapiens. The class given is functional.
Assay [34] concerns HEK293. The experiment in a line: cells. The format is functional, cell-based. The conditions noted are these: Homo sapiens. The source holds these as a separate data set.
Assay [35] is described as follows: cells. The class given is functional, cell-based.
Assay [36] in a line: cells. The class given is functional, cell-based. This is another data set of the same source.
The target in assay [37] is T1, Oxysterols receptor LXR-beta. The class given is functional, cell-based. The source holds these as a separate data set.
Assay [38] concerns the target T2, Endoribonuclease toxin MazF (Escherichia coli K-12, UniProt P0AE70).
T2 sequence (P0AE70 whole entry): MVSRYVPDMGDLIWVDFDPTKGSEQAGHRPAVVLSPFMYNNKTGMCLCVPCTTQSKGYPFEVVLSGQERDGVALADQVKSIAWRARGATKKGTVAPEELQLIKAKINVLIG
Briefly: activation of MazEF endoribonuclease cleavage – biochemical, fluorescence, single-stranded RNA substrate, uHTS hits, dose response (AID 588481). The class given is functional.

The target in assay [39] is T2, Endoribonuclease toxin MazF. Briefly: substrate-only fluorescence increase artefacts – biochemical, single-stranded RNase substrate, counter-screen for MazEF activator project, dose response (AID 588502). The class given is functional.

Calls of active or inactive are those of the source.

Photoreceptor-specific nuclear receptor, sequence (Q9Y5X4 whole entry, the tested form may be a part): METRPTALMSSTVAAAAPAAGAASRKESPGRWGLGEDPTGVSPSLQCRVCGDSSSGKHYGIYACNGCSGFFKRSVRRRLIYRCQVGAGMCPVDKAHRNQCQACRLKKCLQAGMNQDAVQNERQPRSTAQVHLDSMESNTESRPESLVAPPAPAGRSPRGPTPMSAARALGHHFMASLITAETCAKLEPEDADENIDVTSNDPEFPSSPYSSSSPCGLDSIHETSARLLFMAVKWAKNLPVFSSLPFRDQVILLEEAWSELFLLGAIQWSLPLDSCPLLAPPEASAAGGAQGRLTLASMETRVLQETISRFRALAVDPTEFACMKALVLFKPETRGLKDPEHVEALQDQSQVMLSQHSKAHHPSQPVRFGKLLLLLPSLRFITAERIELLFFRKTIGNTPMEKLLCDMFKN
Paired box protein Pax-8, sequence (Q06710 whole entry): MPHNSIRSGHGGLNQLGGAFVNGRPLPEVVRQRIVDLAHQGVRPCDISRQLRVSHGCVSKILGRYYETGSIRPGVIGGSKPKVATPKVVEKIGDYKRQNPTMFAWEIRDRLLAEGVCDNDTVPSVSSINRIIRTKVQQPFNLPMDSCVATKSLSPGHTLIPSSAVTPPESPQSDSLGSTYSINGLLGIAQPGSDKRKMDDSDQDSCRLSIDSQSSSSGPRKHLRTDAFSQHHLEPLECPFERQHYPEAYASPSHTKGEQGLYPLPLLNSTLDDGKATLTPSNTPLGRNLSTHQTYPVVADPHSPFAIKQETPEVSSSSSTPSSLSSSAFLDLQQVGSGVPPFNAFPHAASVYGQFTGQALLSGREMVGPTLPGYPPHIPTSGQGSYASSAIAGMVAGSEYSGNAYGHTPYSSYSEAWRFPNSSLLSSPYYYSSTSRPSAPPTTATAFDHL
Caspase-6, sequence (P55212 24-179 limits assumed): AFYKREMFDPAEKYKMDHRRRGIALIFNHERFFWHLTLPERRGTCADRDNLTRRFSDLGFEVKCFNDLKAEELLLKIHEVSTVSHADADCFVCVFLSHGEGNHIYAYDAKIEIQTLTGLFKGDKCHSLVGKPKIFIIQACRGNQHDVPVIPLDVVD
Caspase-6, sequence (P55212 194-293 limits assumed): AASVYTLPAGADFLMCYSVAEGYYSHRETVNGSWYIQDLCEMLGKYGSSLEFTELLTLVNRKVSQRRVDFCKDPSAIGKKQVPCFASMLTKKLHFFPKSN

`CCOC(=O)C1CCN(C(=O)COC(=O)c2ccc([N+](=O)[O-])o2)CC1`: the AC50 on Caspase-6 is 18.5 µM (active); in assay [1] it was 88.2 µM (active).
Take `COc1ccc(CN(C)C[C@@H]2OCCCC[C@H](C)Oc3ccc(NC(=O)Nc4ccc(C(F)(F)F)cc4)cc3C(=O)N([C@@H](C)CO)C[C@H]2C)cc1`: the AC50 in assay [2] was 25.2 µM (active); in assay [3] it was 63.1 µM (active); at Paired box protein Pax-8, 14.6 µM (active); in assay [4], 21.9 µM (active); in [5], 2.91 µM (active).
As for `Cc1noc(C)c1C(=O)Nc1nc2ccc(F)cc2s1`, the AC50 in assay [6] is > 52 µM (inactive).
As to `Cc1ccc(Nc2nc(-c3ccccc3)cs2)nc1`, the EC50 (in [7]; in “cells [8]”) was > 67.5 µM (inactive) throughout. Moreover, the AC50 in assay [9] is > 52 µM (inactive); in [10] it was 13.3 µM (active); in assay [11], 37.4 µM (active); in assay [12], 8.03 µM (active).
As for `COc1ccc(-c2nnc(S)n2-c2ccc(Br)cc2)cc1OC`, the IC50 in [13] was > 69.5 µM (inactive).
As for `CCN(CC)S(=O)(=O)c1ccc(NC(=O)Nc2cccc(C(F)(F)F)c2)cc1`, the IC50 in the assay on HEK293 [14] is 4.48 µM (inactive); in assay [15], 6.94 µM (active); in the assay on HEK293 [19], 3.14 µM (active); with HEK293 [34], 8.73 µM (active). Further, the concentration at half-maximal activity (AC50) in the assay on INS1 was 4.6 µM (active); in assay [18], 9.67 µM (active); in assay [20], 2.13 µM (active); in [21] it was 10.8 µM (active); in [22], 27.6 µM (active); in [24], 13.6 µM (active). In addition, the concentration at half-maximal activity (AC50) in assay [25] was 9.71 µM (active); in assay [26] it was 5.6 µM (active); in assay [29], 5.75 µM (active); in assay [32] it was 10.3 µM (active). Further, the EC50 was > 120 µM (not active) in assay [16]; 4.56 µM (active) in [17]; > 60 µM (not active) in assay [23]; 6.35 µM (active) in assay [27]; 11.1 µM (active) in assay [28]; 1.67 µM (active) in [30]. Moreover, the EC50 in assay [31] is 14.9 µM (active); in the assay on HEK293 [33] it was > 20 µM (inactive).
For `OCc1ccc(N=Nc2ccccc2)cc1`, the EC50 in the assay “cells [35]” was 8.65 µM (active); in the assay “cells [36]” it was > 350 µM (not active); in [37] it was > 67.5 µM (inactive).
For the compound `Nc1c(C(=O)c2ccccc2)sc2nsc(SCCN3CCOCC3)c12`, the EC50 in assay [38] and in [39] was > 99 µM (inactive) throughout. Moreover, in assay [6], the AC50 is 51.6 µM (active).
